{
  "source": "patent US8633184B2",
  "about": "“Benzoazepin-oxy-acetic acid derivatives as PPAR-delta agonists used for the increase of HDL-C, lower LDL-C and lower cholesterol” (Janssen Pharmaceutica N.V., priority 2006, dated 2014)",
  "key": {"PPARδ": {"molecular_target": "T1, PPARδ (Homo sapiens, UniProt Q03181)", "T1 construct": "expressed in transfected cells; host or cells: HEK293", "T1 sequence (Q03181 211-439 limits assumed)": "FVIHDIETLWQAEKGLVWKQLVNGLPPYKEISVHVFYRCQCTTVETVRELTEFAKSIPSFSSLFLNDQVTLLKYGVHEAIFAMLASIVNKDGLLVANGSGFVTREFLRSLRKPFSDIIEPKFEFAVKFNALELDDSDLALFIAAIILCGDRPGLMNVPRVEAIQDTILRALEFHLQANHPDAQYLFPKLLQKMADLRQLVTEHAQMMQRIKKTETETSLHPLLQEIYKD", "assay": "Transfection assay, GAL4-PPARδ LBD luciferase reporter in HEK293 cells", "type": "cell-based", "conditions": "18-24 hrs", "protocol": "(§1) HEK293 cells were grown in DMEM/F12 medium supplemented with 10% FBS and glutamine (Invitrogen) and incubated in a 5% CO2 incubator at 37° C. The cells were co-transfected using DMRIE-C reagent (Invitrogen) in serum free medium (Opti-MEM, Invitrogen) with two mammalian expression plasmids, one containing the DNA sequence coding for the ligand binding domains of either PPARα, γ or δ fused to the yeast GAL4 DNA binding domain and the other containing the promoter sequence of the yeast GAL4 (UAS) fused to the firefly luciferase cDNA reporter. The next day, the medium was changed to DMEM/F12 medium supplemented with 5% charcoal treated serum (Hyclone) and glutamine. After 6 hrs the cells were trypsinized and seeded at a density of 50,000 cells/well into 96 well plates and incubated overnight as above. The cells were then treated with test compounds or vehicle and incubated for 18-24 hrs as above. Luciferase reporter activity was measured using the Steady-Glo Luciferase Assay Kit from Promega. DMRIE-C Reagent was purchased from GIBCO Cat. No. 10459-014. OPTI-MEM I Reduced Serum Medium was purchased from GIBCO (Cat. No. 31985). Steady-Glo Luciferase Assay Kit was purchased from Promega (Part #E254B).\n(§2) A variety of example compounds have been made and tested, with a range of in vitro results. Below, in Table 2, are representative compounds and data; in some cases, where multiple EC50's are shown, multiple measurements were taken. Naturally, different compounds in Formula (I) may have not activities identical to any one compound below."}, "PPARγ": {"molecular_target": "T2, PPARγ (Homo sapiens, UniProt P37231)", "T2 construct": "expressed in transfected cells; host or cells: HEK293", "T2 sequence (P37231 238-503 limits assumed)": "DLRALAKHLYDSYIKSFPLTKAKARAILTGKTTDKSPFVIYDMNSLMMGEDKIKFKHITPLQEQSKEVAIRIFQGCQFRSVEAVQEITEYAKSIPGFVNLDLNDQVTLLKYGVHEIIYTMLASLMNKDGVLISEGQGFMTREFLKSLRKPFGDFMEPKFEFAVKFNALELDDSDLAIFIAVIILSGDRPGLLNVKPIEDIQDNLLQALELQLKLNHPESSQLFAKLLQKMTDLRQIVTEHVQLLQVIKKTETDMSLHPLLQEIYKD", "assay": "Transfection assay, GAL4-PPARγ LBD luciferase reporter in HEK293 cells", "type": "cell-based", "conditions": "18-24 hrs", "protocol": "as §1, §2"}, "PPARα": {"molecular_target": "T3, PPARα (Homo sapiens, UniProt Q07869)", "T3 construct": "expressed in transfected cells; host or cells: HEK293", "T3 sequence (Q07869 239-466 limits assumed)": "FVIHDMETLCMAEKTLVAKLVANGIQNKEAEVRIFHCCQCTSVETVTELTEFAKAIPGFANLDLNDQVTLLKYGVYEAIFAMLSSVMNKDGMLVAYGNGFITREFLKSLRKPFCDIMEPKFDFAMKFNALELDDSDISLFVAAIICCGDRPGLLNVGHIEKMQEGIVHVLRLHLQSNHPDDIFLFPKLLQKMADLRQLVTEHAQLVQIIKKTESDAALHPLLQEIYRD", "assay": "Transfection assay, GAL4-PPARα LBD luciferase reporter in HEK293 cells", "type": "cell-based", "conditions": "18-24 hrs", "protocol": "as §1, §2"}, "[1]": {"tested_on": "Sprague Dawley rats fed a diet high in cholesterol", "assay": "Rat study: high cholesterol diet, serum lipids and liver weights after 8 days treatment", "type": "in vivo", "conditions": "for HDL-C / LDL-C / Total Cholesterol / Triglycerides / Liver Weights: 8 days", "excerpt": "(§3) Rats carry the majority of serum cholesterol in the HDL lipoprotein fraction while humans carry the majority of serum cholesterol in LDL and VLDL lipoproteins. To mimic a human hypercholesterolemic state in a rodent model, Sprague Dawley rats were fed a diet high in cholesterol (Research Diets, C13002) for 6 days before treatment with the compounds for another 8 days while remaining on the diet. Under this dietary regimen, the vehicle controls (HC: High Cholesterol) typically have serum total cholesterol and LDL-C levels that are increased by 3-8 fold and serum HDL-C is decreased by approximately 30-50% compared with chow diet (lean) controls.\n(§4) Compound 7 had no effect on serum triglycerides or liver weights."}, "[2]": {"assay": "Rat study: drug plasma levels (pharmacokinetics)", "type": "in vivo", "excerpt": "as §3, §4"}, "[3]": {"assay": "Rat study: drug plasma levels (pharmacokinetics)", "type": "in vivo", "conditions": "for Cmax / half-life / AUC(0-t): Sprague Dawley, plasma"}},
  "note": "“And” between values parts separate entries of the source, which are not always exact repeats. Equal values may be shown once. Read-outs that look alike come from different tables or passages of the source.",
  "data": [
    {"smiles": "O=C(O)COc1ccc2c(c1)CCN(Cc1ccc(-c3ccc(C(F)(F)F)cc3)s1)CC2", "note": "[compound 7]", "values": [
      {"measurement": "EC50", "setting": "PPARδ", "result": "14.5 nM and 18.9 nM"},
      {"measurement": "EC50", "setting": "PPARγ", "result": "> 3000", "unit": "nM"},
      {"measurement": "EC50", "setting": "PPARα", "result": "> 3000", "unit": "nM"},
      {"measurement": "HDL-C", "setting": "[1]; 0.1 mg/kg", "result": "24.2 ± 2.9", "unit": "mg/dL"},
      {"measurement": "LDL-C", "setting": "[1]; 0.1 mg/kg", "result": "32.7 ± 4.7", "unit": "mg/dL"},
      {"measurement": "Total Cholesterol", "setting": "[1]; 0.1 mg/kg", "result": "239.0 ± 22.4", "unit": "mg/dL"},
      {"measurement": "Triglycerides", "setting": "[1]; 0.1 mg/kg", "result": "269.8 ± 27.8", "unit": "mg/dL"},
      {"measurement": "HDL-C", "setting": "[1]; 0.3 mg/kg", "result": "29.6 ± 1.4", "unit": "mg/dL"},
      {"measurement": "LDL-C", "setting": "[1]; 0.3 mg/kg", "result": "31.2 ± 1.5", "unit": "mg/dL"},
      {"measurement": "Liver Weights", "setting": "[1]; 0.3 mg/kg", "result": "25.0 ± 0.8"},
      {"measurement": "Total Cholesterol", "setting": "[1]; 0.3 mg/kg", "result": "233.2 ± 9.5", "unit": "mg/dL"},
      {"measurement": "Triglycerides", "setting": "[1]; 0.3 mg/kg", "result": "264.7 ± 29.8", "unit": "mg/dL"},
      {"measurement": "HDL-C", "setting": "[1]; 1 mg/kg", "result": "31.8 ± 0.9", "unit": "mg/dL"},
      {"measurement": "LDL-C", "setting": "[1]; 1 mg/kg", "result": "24.4 ± 1.3", "unit": "mg/dL"},
      {"measurement": "Liver Weights", "setting": "[1]; 1 mg/kg", "result": "23.9 ± 0.5"},
      {"measurement": "Total Cholesterol", "setting": "[1]; 1 mg/kg", "result": "173.3 ± 7.9", "unit": "mg/dL"},
      {"measurement": "Triglycerides", "setting": "[1]; 1 mg/kg", "result": "237.7 ± 25.4", "unit": "mg/dL"},
      {"measurement": "HDL-C", "setting": "[1]; 3 mg/kg", "result": "39.6 ± 1.6", "unit": "mg/dL"},
      {"measurement": "LDL-C", "setting": "[1]; 3 mg/kg", "result": "20.6 ± 1.5", "unit": "mg/dL"},
      {"measurement": "Liver Weights", "setting": "[1]; 3 mg/kg", "result": "27.2 ± 0.9"},
      {"measurement": "Total Cholesterol", "setting": "[1]; 3 mg/kg", "result": "152.2 ± 8.5", "unit": "mg/dL"},
      {"measurement": "Triglycerides", "setting": "[1]; 3 mg/kg", "result": "299.5 ± 35.9", "unit": "mg/dL"},
      {"measurement": "LDL-C levels (effect in words)", "setting": "[1]; 8 days treatment", "result": "significant decreases"},
      {"measurement": "liver weights (effect in words)", "setting": "[1]; 8 days treatment", "result": "no effect"},
      {"measurement": "serum total cholesterol levels (effect in words)", "setting": "[1]; 8 days treatment", "result": "significant decreases"},
      {"measurement": "serum triglycerides (effect in words)", "setting": "[1]; 8 days treatment", "result": "no effect"},
      {"measurement": "HDL-C levels (effect in words)", "setting": "[1]; 8 days treatment, achieving the levels of the chow fed controls", "result": "significantly increased"},
      {"measurement": "drug plasma levels (Cmax and AUC), in words", "setting": "[2]", "result": "dose-related increases"},
      {"measurement": "Tmax", "setting": "[2]; Dose 0.1, Multiple, n = 2", "result": 2.5, "unit": "h"},
      {"measurement": "Tmax", "setting": "[2]; Dose 0.3, Multiple", "result": 3, "unit": "h"},
      {"measurement": "Tmax", "setting": "[2]; Dose 1, Multiple, n = 2", "result": 4, "unit": "h"},
      {"measurement": "Tmax", "setting": "[2]; Dose 3, Single, n = 2", "result": 5.5, "unit": "h"},
      {"measurement": "AUC(0-t)", "setting": "[2]; Sprague Dawley, plasma, 0.1 mg/kg, Dose 0.1, Multiple, n = 2, read-out: AUC0-24", "result": 772, "unit": "ng·h/mL"},
      {"measurement": "half-life", "setting": "[2]; Sprague Dawley, plasma, 0.3 mg/kg, Dose 0.3, Multiple, read-out: t½", "result": "~22", "unit": "h"},
      {"measurement": "AUC(0-t)", "setting": "[2]; Sprague Dawley, plasma, 3 mg/kg, Dose 3, Multiple, read-out: AUC0-24", "result": 37100, "unit": "ng·h/mL"},
      {"measurement": "Tmax", "setting": "[3]; Dose 3, Multiple", "result": 5, "unit": "h"},
      {"measurement": "Cmax", "setting": "[3]; 0.1 mg/kg, Dose 0.1, Multiple, n = 2", "result": 57, "unit": "ng/mL"},
      {"measurement": "half-life", "setting": "[3]; 0.1 mg/kg, Dose 0.1, Multiple, n = 2, read-out: t½", "result": "~13", "unit": "h"},
      {"measurement": "Cmax", "setting": "[3]; 0.3 mg/kg, Dose 0.3, Multiple", "result": 124, "unit": "ng/mL"},
      {"measurement": "AUC(0-t)", "setting": "[3]; 0.3 mg/kg, Dose 0.3, Multiple, read-out: AUC0-24", "result": 1640, "unit": "ng·h/mL"},
      {"measurement": "Cmax", "setting": "[3]; 1 mg/kg, Dose 1, Multiple, n = 2", "result": 595, "unit": "ng/mL"},
      {"measurement": "AUC(0-t)", "setting": "[3]; 1 mg/kg, Dose 1, Multiple, n = 2, read-out: AUC0-24", "result": 10900, "unit": "ng·h/mL"},
      {"measurement": "Cmax", "setting": "[3]; 3 mg/kg, Dose 3, Multiple", "result": 2030, "unit": "ng/mL"},
      {"measurement": "half-life", "setting": "[3]; 3 mg/kg, Dose 3, Multiple, read-out: t½", "result": "~36", "unit": "h"},
      {"measurement": "Cmax", "setting": "[3]; 3 mg/kg, Dose 3, Single, n = 2", "result": 733, "unit": "ng/mL"},
      {"measurement": "AUC(0-t)", "setting": "[3]; 3 mg/kg, Dose 3, Single, n = 2, read-out: AUC0-24", "result": 14200, "unit": "ng·h/mL"},
      {"measurement": "half-life", "setting": "[3]; 3 mg/kg, Dose 3, Single, n = 2, read-out: t½", "result": "~29", "unit": "h"}
    ]}
  ]
}
